# Data: patent US11529436B2, “Engineered three-dimensional skin tissues, arrays thereof, and methods of making the same” (Organovo, Inc., priority 2014, dated 2022)
# Experiments:
# Type in all cases: cell-based, human
# [1] = tested on: bioprinted full thickness skin tissue; experiment: Lactate dehydrogenase (LDH) activity in media of bioprinted skin tissue, skin irritation test
# Source text: Bio-ink was generated by a cellular mixture of 100% primary adult human dermal fibroblasts (HDFa) in 8% gelatin (NOVOGEL 2.0) at a concentration of 100 million cells per milliliter. The cell: gelatin ratio was altered to reduce the cellular density of the dermal sheet to better mimic dermal tissue in native skin. Three-dimensional bio-ink constructs were printed by continuous deposition using the NOVOGEN BIOPRINTER platform in a 4 mm×4 mm×0.5 mm base to create a dermal structure resembling a sheet. […] The transwell printing surface contained a polytetrafluoroethylene (PTFE) membrane coated with equimolar mixture of types I and III collagen (bovine) with pores 3 μm in size. Epidermal cell paste containing a mixture of 100% primary neonatal human epidermal keratinocytes (HEKn) was then printed on top of the dermal bio-ink. Cell paste was measured post print at 87.1% viable by trypan exclusion assay. Cell numbers in the deposited epidermal layer was estimated at 60,000 cells by cell counting on a Cell-O-Meter. Immediately following the print, constructs were placed at 4° C. for 10 minutes. Cold media was then added to the outer well of the transwell in a volume of 3 ml. The media used for subsequent growth and maintenance of the skin tissue was a 50:50 ratio of HDFa: HEKn media. The initial volume added was sufficient to submerge the structure. All subsequent media changes used warmed media (37° C.) added to the outer well of the transwell and not to the inner basket. Media was changed 48 hours later and reduced to a volume of 1.5 ml per well to bring the structure to an air-liquid interface (ALI). Media and subsequently changed 48 hours after that (day 4) at a volume of 1.5 ml. […] IL-1α production (R&D Systems) was analyzed in a colorimetric assays per manufacturer's protocol. Media was analyzed for lactate dehydrogenase as a marker for cytotoxicity. IL-1α production was assessed as a complementary endpoint to classic cytotoxicity testing to improve predictability of irritants. […] Viability was measured as fluorescence in the media by conversion of resazurin to resorufin. […]
# [2] = tested on: bioprinted full thickness skin tissue; experiment: Gene expression (qPCR) analysis of bioprinted skin tissue after irritant treatment; details: 1% TRITON X-100, 1 hour exposure
# Source text: Bio-ink was generated by a cellular mixture of 100% primary adult human dermal fibroblasts (HDFa) in 8% gelatin (NOVOGEL 2.0) at a concentration of 100 million cells per milliliter. The cell: gelatin ratio was altered to reduce the cellular density of the dermal sheet to better mimic dermal tissue in native skin. Three-dimensional bio-ink constructs were printed by continuous deposition using the NOVOGEN BIOPRINTER platform in a 4 mm×4 mm×0.5 mm base to create a dermal structure resembling a sheet. One tissue construct was printed per transwell in a 6-well plate. The transwell printing surface contained a polytetrafluoroethylene (PTFE) membrane coated with equimolar mixture of types I and III collagen (bovine) with pores 3 μm in size. Epidermal cell paste containing a mixture of 100% primary neonatal human epidermal keratinocytes (HEKn) was then printed on top of the dermal bio-ink. Cell paste was measured post print at 87.1% viable by trypan exclusion assay. Cell numbers in the deposited epidermal layer was estimated at 60,000 cells by cell counting on a Cell-O-Meter. Immediately following the print, constructs were placed at 4° C. for 10 minutes. Cold media was then added to the outer well of the transwell in a volume of 3 ml. The media used for subsequent growth and maintenance of the skin tissue was a 50:50 ratio of HDFa: HEKn media. The initial volume added was sufficient to submerge the structure. All subsequent media changes used warmed media (37° C.) added to the outer well of the transwell and not to the inner basket. Media was changed 48 hours later and reduced to a volume of 1.5 ml per well to bring the structure to an air-liquid interface (ALI). Media and subsequently changed 48 hours after that (day 4) at a volume of 1.5 ml. On day 5, media was changed and further reduced to 1 ml per well and subsequently changed daily. On day 10, skin tissues were subject to a skin irritation test method using 1% TRITON X-100. 1% TRITON X-100 is a known irritant and reference chemical currently used in other 3D skin models. Methods were based on OECD guidelines 439 and 431 for applying human skin models to in vitro skin irritation or corrosion, respectively. On day 10, conditioned media was saved (designated time=0) and 1 ml of fresh media was added to the outer well of the transwell. The printed skin tissue was then treated with 20 μl of PBS as a negative control or with 20 μl of 1% TRITON X-100 as a positive control and known irritant. […] IL-1α production (R&D Systems) was analyzed in a colorimetric assays per manufacturer's protocol. Media was analyzed for lactate dehydrogenase as a marker for cytotoxicity. IL-1α production was assessed as a complementary endpoint to classic cytotoxicity testing to improve predictability of irritants. […]
# [3] = tested on: bioprinted full thickness skin tissue; experiment: IL-1α production in media of bioprinted skin tissue (colorimetric assay), skin irritation test; details: 1% TRITON X-100, 1 hour exposure
# Source text: Bio-ink was generated by a cellular mixture of 100% primary adult human dermal fibroblasts (HDFa) in 8% gelatin (NOVOGEL 2.0) at a concentration of 100 million cells per milliliter. The cell: gelatin ratio was altered to reduce the cellular density of the dermal sheet to better mimic dermal tissue in native skin. Three-dimensional bio-ink constructs were printed by continuous deposition using the NOVOGEN BIOPRINTER platform in a 4 mm×4 mm×0.5 mm base to create a dermal structure resembling a sheet. […] The transwell printing surface contained a polytetrafluoroethylene (PTFE) membrane coated with equimolar mixture of types I and III collagen (bovine) with pores 3 μm in size. Epidermal cell paste containing a mixture of 100% primary neonatal human epidermal keratinocytes (HEKn) was then printed on top of the dermal bio-ink. Cell paste was measured post print at 87.1% viable by trypan exclusion assay. Cell numbers in the deposited epidermal layer was estimated at 60,000 cells by cell counting on a Cell-O-Meter. Immediately following the print, constructs were placed at 4° C. for 10 minutes. Cold media was then added to the outer well of the transwell in a volume of 3 ml. The media used for subsequent growth and maintenance of the skin tissue was a 50:50 ratio of HDFa: HEKn media. The initial volume added was sufficient to submerge the structure. All subsequent media changes used warmed media (37° C.) added to the outer well of the transwell and not to the inner basket. Media was changed 48 hours later and reduced to a volume of 1.5 ml per well to bring the structure to an air-liquid interface (ALI). Media and subsequently changed 48 hours after that (day 4) at a volume of 1.5 ml. On day 5, media was changed and further reduced to 1 ml per well and subsequently changed daily. On day 10, skin tissues were subject to a skin irritation test method using 1% TRITON X-100. 1% TRITON X-100 is a known irritant and reference chemical currently used in other 3D skin models. Methods were based on OECD guidelines 439 and 431 for applying human skin models to in vitro skin irritation or corrosion, respectively. On day 10, conditioned media was saved (designated time=0) and 1 ml of fresh media was added to the outer well of the transwell. The printed skin tissue was then treated with 20 μl of PBS as a negative control or with 20 μl of 1% TRITON X-100 as a positive control and known irritant. Test substances were pipetted manually to the apical surface of the tissue. TRITON X-100 was diluted to a 1% aqueous solution in deionized water and sterile filtered through a 20 micron filter before use. […] Media was saved (designated time=1 hour). Samples were then washed extensively by PBS rinsing. […] The media was then changed at 24 hours and at 48 hours post treatment. Total media collected included time points=−48, 0, 1, 24, and 48 hours. IL-1α production (R&D Systems) was analyzed in a colorimetric assays per manufacturer's protocol. Media was analyzed for lactate dehydrogenase as a marker for cytotoxicity. IL-1α production was assessed as a complementary endpoint to classic cytotoxicity testing to improve predictability of irritants. Keratinocytes normally produce and release inflammatory cytokine IL-1α in response to chemical or physical stress. […] Viability was measured as fluorescence in the media by conversion of resazurin to resorufin. […]
substance,measurement,setting,value
TRITON X-100,induction in LDH activity compared to PBS control,"[1]; 1% TRITON X-100, 1 hour exposure, 6-well format, at 1 hour, 24 hours and 48 hours post treatment",roughly 2 fold
same,LDH activity higher than PBS,"[1]; 15 minute exposure, 5% SDS or 1% TRITON X-100, 24 well plate format, 42 hours post exposure",about 1.4 fold
same,CK1 and CK10 gene expression,[2]; 48 hours post exposure,reduced
same,"collagen production of types 1, 3, and 4 collagen (gene expression)",[2]; 48 hours post exposure,reduced
same,expression of both epidermal and dermal markers,[2]; 48 hours post exposure,dramatically reduces
same,IL1α gene expression increase in comparison to the PBS control,[2]; 48 hours post treatment,about 3 fold
same,IL-1α levels,[3]; 24 hours post treatment,remained high
same,IL-1α levels,[3]; 48 hours post treatment,returned to baseline
same,IL-1α activity in comparison to PBS control,[3]; greatest difference 1 hour post treatment,increased
